Results from ChEMBL document CHEMBL1201862, “PubChem BioAssay data set” (2004).
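The compound was tested at five concentrations on cells cultured in 96-well plates, with a 48-hour exposure period. Abbreviation: GI50, concentration required for 50% inhibition of growth.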 The source made the active and inactive calls. No stated cut-off is given here; in the data, active = GI50 up to about 1.1 µM and inactive = higher.

Key:
Experiment in all cases: growth of human tumour cells (NCI), 48 h
A549 = system: A549
CCRF-CEM = system: CCRF-CEM
EKVX = system: EKVX
HCT-15 = system: HCT-15
HT-29 = system: HT-29
Hs-578T = system: Hs-578T
K562 = system: K562
M14 = system: M14
MCF7 = system: MCF7
MDA-MB-435 = system: MDA-MB-435
MOLT-4 = system: MOLT-4
OVCAR-5 = system: OVCAR-5
RXF 393 = system: RXF 393
SK-MEL-28 = system: SK-MEL-28
SNB-19 = system: SNB-19
SNB-75 = system: SNB-75
SR = system: SR
T47D = system: T47D
TK-10 = system: TK-10
UACC-62 = system: UACC-62

Measured: GI50

COC(=O)c1ccc(O)c2nc3c(C=O)c(O)cc(O)c3nc12 [LOMOFUNGIN]
active: A549 396 nM | CCRF-CEM 259 nM | HT-29 458 nM | K562 84.7 nM | M14 592 nM | MCF7 369 nM | MDA-MB-435 935 nM | MOLT-4 225 nM | OVCAR-5 822 nM | T47D 397 nM
220 nM: HCT-15
inactive: EKVX 1360 nM | Hs-578T 1210 nM | RXF 393 7180 nM | SK-MEL-28 1930 nM | SNB-19 1900 nM | SNB-75 1780 nM | SR 10600 nM | TK-10 1620 nM | UACC-62 1270 nM
